{"source": "patent US20230346827A1", "about": "(priority 2020, published 2023)", "key": {"[1]": {"system": "Human umbilical vein endothelial cells (HUVECs)", "test": "Gene expression array and pathway analysis, HUVECs, LMW-DS 0.01 mg/ml 48 h", "format": "cell-based", "conditions": "for number of genes: abolished nutrient effect / number of genes: total / number of genes: enhanced response to nutrients / number of genes: not different from control / Activation z-score / Predicted activation state relative D2 control: HUVECs; for Activation z-score / Predicted activation state relative D2 control: D2 LMW-DS treatment", "method": "For each cell line, n=8 × 25 cm^2 culture flasks were set up. Two flasks were harvested for each cell type on the day of treatment (24 hours after seeding). This represents the Day0 time point. From the remaining flasks, three flasks were treated with Control Medium and three were treated with Culture Medium (CM) containing LMW-DS to give a final concentration of 0.01 mg/ml. Cells from the treated flasks were collected after 48 hours. Therefore the collected data represent (a) untreated cells (Day0 Controls and Day2 Controls) and (b) cells treated with LMW-DS (ILB®, Tikomed AB, Viken, Sweden, WO 2016/076780) for 48 hours (Day2 LMW-DS treated).\nMedium 200 + Large Vessel Endothelial Supplement (M200+LVES) additive (1:50) was prepared and pre-warmed to 37° C. Cells were thawed in a 37° C. water bath for no longer than 2 min and gently transferred into a 50 ml tube containing 20 ml Dulbecco’s Modified Eagle Medium, Nutrient Mixture F-12 (DMEM-F12). The cell suspension was mixed by inverting the tube carefully twice. Cells were spun at 400 × g for 10 minutes. Supernatant removed and cells were re-suspended in 10 ml of culture media (M200+LVES additive).\nCells were counted with the Cellometer. 1,000,000 cells/flask were seeded in 25 cm^2 flasks (n=8) and medium was topped up to a total of 5 ml per flask. Cells were incubated at 37° C. with 5% CO2. Cells were allowed to settle for 24 hours before LMW-DS treatment.\nLMW-DS was provided at a stock concentration of 20 mg/ml and was kept in a temperature monitored refrigerator at 4° C. A fresh 100x LMW-DS stock (1.0 mg/ml) was prepared in sterile DMEM-F12. The concentrated drug stock was sterile filtered and added to the respective culture media (19.6 ml CM and 0.4 ml LMW-DS stock solution). The Control was made using 19.6 ml CM and 0.4 ml of DMEM-F12. LMW-DS and CM were added to the respective flasks (5 ml each) to reach the 0.01 mg/ml concentration of LMW-DS in each dish with a total of 10 ml CM each.\nCM was aspirated into a clean and labelled 15 ml Falcon tube. The flasks (without culture medium) were placed into the -80° C. freezer for 30 minutes. The CM in the Falcon tubes was spun at 3000 x g for 5 minutes. Supernatant was removed and the small pellet was re-suspended in 2.5 ml Trizol:Water (4:1) solution at room temperature (RT, ~22° C.).\nTwo aliquots of 1 ml lysate were removed from each sample and 200 µl of chloroform was added to each (0.2 ml of chloroform per 1 ml of TRIzol Reagent used during the cell lysis step) and the tube was shaken vigorously. Samples were stored at RT for 2-3 minutes and subsequently centrifuged at 12,000 x g for 15 minutes at 4° C.\nThe RNA was precipitated from the aqueous phase by adding an equal amount of 100% ethanol. The precipitated RNA was fixed onto a Spin Cartridge, washed twice and dried. The RNA was eluted in 50 µl warm RNase-Free Water. The amount and quality of the purified RNA was measured by Nanodrop. The RNA was stored at -80° C. before transfer to Source Bioscience for Array analysis.\nThe expression data were downloaded into separate files for each cell line. The ‘Background corrected’ expression is the data from the “gProcessedSignal” of the arrays that is the result of the background signal extracted from the actual signal of the relevant probe. This is the most often used variable in array analysis. The background corrected signal was log2 transformed for all samples for statistical analysis. To reduce the false discovery rate in the samples, the signals that were below ‘expression level’ were removed. The ‘below expression’ level was set at 5 for the log2 transformed expression values.\nBased on the expression pattern of the Control probes on each array it was decided to carry out Median Centering for all arrays before analysis to reduce the variability of the results. […]"}, "ALS patients [2]": {"system": "ALS patients", "test": "Serum lactate in ALS patients, dextran sulfate 2 mg/kg s.c. weekly for ten weeks (Example 14)", "format": "in vivo, human", "design": "serum lactate levels: unit not given here", "method": "Dextran sulfate (ILB®, Tikomed AB, Viken, Sweden, WO 2016/076780) was administered at 2 mg/kg by […] subcutaneous injection once a week for ten weeks to 8 human patients suffering from ALS.\nPeripheral venous blood samples were collected from patients before (week 0) and after dextran sulfate administration (week 5 and week 10) after at least 15 minutes of complete rest, using the standard tourniquet procedure, from the antecubital vein into a single VACUETTE® polypropylene tube containing serum separator and clot activator (Greiner-Bio One GmbH, Kremsmunster, Austria). After 30 mins at room temperature (20-25° C.), blood withdrawals were centrifuged at 1,890 × g for 10 min to get serum aliquots.\nA serum aliquot of 500 µl was supplemented with 1 ml of HPLC-grade acetonitrile, vortexed for 60 secs, centrifuged at the maximum speed in a top-bench centrifuge to precipitate proteins. Supernatants were washed with large volumes of HPLC-grade chloroform to remove organic solvent, centrifuged and the upper aqueous phases were transferred to different tubes, clearly labeled to identify the sample and stored at -80° C. until analyzed to determine different water-soluble compounds."}, "ALS patients [3]": {"system": "ALS patients", "test": "ALSFRS-R / clinical observation in ALS patients (Example 15)", "format": "in vivo, human", "conditions": "five-week treatment period", "method": "Dextran sulfate (Tikomed AB, Viken, Sweden, WO 2016/076780) was administered at 1 mg/kg by […] subcutaneous injection once a week for five weeks to 13 human patients suffering from ALS.\nALSFRS-R was assessed pre-treatment and weekly thereafter for the 5 treatment weeks and for the visits at the follow-up period."}}}
{"substance": "sodium salt of dextran sulfate [LMW-DS]", "values": [{"measurement": "genes regulating cell attachment (of 197) differentially regulated", "setting": "[1]", "value": "none"}, {"measurement": "number of differentially expressed genes", "setting": "[1]; D0 control to D2 LMW-DS treated", "value": 1779}, {"measurement": "number of differentially expressed genes", "setting": "[1]; D2 control to D2 LMW-DS treated", "value": 76}, {"measurement": "number of genes: abolished nutrient effect", "setting": "[1]; no effect", "value": 67}, {"measurement": "number of genes: total", "setting": "[1]; no effect", "value": 67}, {"measurement": "number of genes: abolished nutrient effect", "setting": "[1]; significant downregulation", "value": 4}, {"measurement": "number of genes: enhanced response to nutrients", "setting": "[1]; significant downregulation", "value": 120}, {"measurement": "number of genes: not different from control", "setting": "[1]; significant downregulation", "value": 167}, {"measurement": "number of genes: total", "setting": "[1]; significant downregulation", "value": 291}, {"measurement": "number of genes: abolished nutrient effect", "setting": "[1]; significant upregulation", "value": 11}, {"measurement": "number of genes: enhanced response to nutrients", "setting": "[1]; significant upregulation", "value": 229}, {"measurement": "number of genes: not different from control", "setting": "[1]; significant upregulation", "value": 1326}, {"measurement": "number of genes: total", "setting": "[1]; significant upregulation", "value": 1566}, {"measurement": "number of genes: abolished nutrient effect", "setting": "[1]; total", "value": 82}, {"measurement": "number of genes: enhanced response to nutrients", "setting": "[1]; total", "value": 349}, {"measurement": "number of genes: not different from control", "setting": "[1]; total", "value": 1493}, {"measurement": "number of genes: total", "setting": "[1]; total", "value": 1924}, {"measurement": "modulation of the effects of oxidative stress on mitochondria", "setting": "[1]; pathway analysis of gene expression", "value": "no significant modulation"}, {"measurement": "genes altered in Control cultures with no changes in LMW-DS treated cultures", "setting": "[1]; two days", "value": 67}, {"measurement": "genes downregulated by growth factors, downregulation stronger with LMW-DS", "setting": "[1]; two days", "value": 120}, {"measurement": "genes downregulated in control cultures, upregulated in LMW-DS treated cultures", "setting": "[1]; two days", "value": 11}, {"measurement": "genes increased in control cultures, downregulated in LMW-DS treated cultures", "setting": "[1]; two days", "value": 4}, {"measurement": "genes upregulated in Control cultures, upregulation stronger with LMW-DS", "setting": "[1]; two days", "value": 229}, {"measurement": "Activation z-score", "setting": "[1]; upstream regulator HGF", "value": 3.194}, {"measurement": "Predicted activation state relative D2 control", "setting": "[1]; upstream regulator HGF", "value": "Activated relative to control"}, {"measurement": "Activation z-score", "setting": "[1]; upstream regulator TGFβ1", "value": 1.429}, {"measurement": "Predicted activation state relative D2 control", "setting": "[1]; upstream regulator TGFβ1", "value": "Activated relative to control"}, {"measurement": "Activation z-score", "setting": "[1]; upstream regulator VEGF", "value": 3.432}, {"measurement": "Predicted activation state relative D2 control", "setting": "[1]; upstream regulator VEGF", "value": "Activated relative to control"}, {"measurement": "increase of serum lactate levels vs Week 0", "setting": "ALS patients [2]; after 5 weeks of treatment", "value": 29.8, "unit": "%"}, {"measurement": "serum lactate levels", "setting": "ALS patients [2]; after 5 weeks of treatment", "value": "2.31±1.02"}, {"measurement": "increase of serum lactate levels vs Week 0", "setting": "ALS patients [2]; after 10 weeks of treatment", "value": 70, "unit": "%"}, {"measurement": "serum lactate levels", "setting": "ALS patients [2]; after 10 weeks of treatment", "value": "3.02±1.59"}, {"measurement": "severe bulbar paresis (two patients)", "setting": "ALS patients [3]", "value": "almost complete resolution"}]}
